Where two headings read alike, the source gives them in different places.
How the values were obtained:
[1] = molecular target: EGFR L858R/T790M/C797S (Homo sapiens, UniProt P00533, C797S/L858R/T790M); test: Biochemical EGFR kinase assay (Lance Ultra TR-FRET), triple mutant L858R/T790M/C797S
In short: (§1)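 In this biochemical assay, phosphorylation after a one-hour room-temperature reaction was detected with europium-labelled anti-phosphopeptide antibody at 2 nM final concentration.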

[2] = molecular target: EGFR del19/T790M/C797S (Homo sapiens, UniProt P00533, C797S/DEL746-750/T790M); test: Biochemical EGFR kinase assay (Lance Ultra TR-FRET), triple mutant del19/T790M/C797S
Sequence of EGFR del19/T790M/C797S (P00533 with tags, fused parts or gaps DEL746-750/T790M/C797S): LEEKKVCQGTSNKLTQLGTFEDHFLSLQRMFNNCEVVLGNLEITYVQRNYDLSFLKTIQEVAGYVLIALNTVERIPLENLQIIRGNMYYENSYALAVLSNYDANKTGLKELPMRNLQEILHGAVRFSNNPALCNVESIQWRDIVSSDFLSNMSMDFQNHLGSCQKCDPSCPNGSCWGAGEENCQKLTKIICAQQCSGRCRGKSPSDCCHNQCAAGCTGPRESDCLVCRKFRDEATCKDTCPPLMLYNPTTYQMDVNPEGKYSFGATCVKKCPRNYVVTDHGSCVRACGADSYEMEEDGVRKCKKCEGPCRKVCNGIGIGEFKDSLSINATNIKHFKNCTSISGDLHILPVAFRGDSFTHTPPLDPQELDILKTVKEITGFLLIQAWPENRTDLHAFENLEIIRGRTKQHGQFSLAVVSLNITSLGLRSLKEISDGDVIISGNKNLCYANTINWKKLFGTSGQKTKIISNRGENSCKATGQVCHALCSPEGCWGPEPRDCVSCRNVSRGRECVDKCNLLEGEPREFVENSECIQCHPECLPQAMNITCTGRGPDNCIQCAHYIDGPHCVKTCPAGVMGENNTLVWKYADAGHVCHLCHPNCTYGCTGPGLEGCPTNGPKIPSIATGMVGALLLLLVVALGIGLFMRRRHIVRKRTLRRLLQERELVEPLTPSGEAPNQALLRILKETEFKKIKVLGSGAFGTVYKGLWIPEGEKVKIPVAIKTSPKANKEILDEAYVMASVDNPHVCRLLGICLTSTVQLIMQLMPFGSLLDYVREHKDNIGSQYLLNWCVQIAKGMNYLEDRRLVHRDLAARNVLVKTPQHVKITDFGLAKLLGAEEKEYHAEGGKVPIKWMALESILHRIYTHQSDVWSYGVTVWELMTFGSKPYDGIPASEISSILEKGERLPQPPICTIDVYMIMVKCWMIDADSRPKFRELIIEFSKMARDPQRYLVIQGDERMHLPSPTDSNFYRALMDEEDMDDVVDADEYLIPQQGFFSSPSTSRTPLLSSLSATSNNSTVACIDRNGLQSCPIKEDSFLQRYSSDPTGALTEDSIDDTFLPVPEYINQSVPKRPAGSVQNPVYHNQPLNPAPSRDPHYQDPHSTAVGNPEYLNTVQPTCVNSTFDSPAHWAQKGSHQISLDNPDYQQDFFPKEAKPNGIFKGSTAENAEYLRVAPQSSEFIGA
In short: as §1

[3] = molecular target: EGFR del19/C797S (Homo sapiens, UniProt P00533, C797S/DEL746-750); test: Biochemical EGFR kinase assay (Lance Ultra TR-FRET), double mutant del19/C797S
In short: as §1

[4] = molecular target: EGFR L858R/C797S (Homo sapiens, UniProt P00533, C797S/L858R); test: Biochemical EGFR kinase assay (Lance Ultra TR-FRET), double mutant L858R/C797S
Sequence of EGFR L858R/C797S (P00533 25-1210 C797S/L858R): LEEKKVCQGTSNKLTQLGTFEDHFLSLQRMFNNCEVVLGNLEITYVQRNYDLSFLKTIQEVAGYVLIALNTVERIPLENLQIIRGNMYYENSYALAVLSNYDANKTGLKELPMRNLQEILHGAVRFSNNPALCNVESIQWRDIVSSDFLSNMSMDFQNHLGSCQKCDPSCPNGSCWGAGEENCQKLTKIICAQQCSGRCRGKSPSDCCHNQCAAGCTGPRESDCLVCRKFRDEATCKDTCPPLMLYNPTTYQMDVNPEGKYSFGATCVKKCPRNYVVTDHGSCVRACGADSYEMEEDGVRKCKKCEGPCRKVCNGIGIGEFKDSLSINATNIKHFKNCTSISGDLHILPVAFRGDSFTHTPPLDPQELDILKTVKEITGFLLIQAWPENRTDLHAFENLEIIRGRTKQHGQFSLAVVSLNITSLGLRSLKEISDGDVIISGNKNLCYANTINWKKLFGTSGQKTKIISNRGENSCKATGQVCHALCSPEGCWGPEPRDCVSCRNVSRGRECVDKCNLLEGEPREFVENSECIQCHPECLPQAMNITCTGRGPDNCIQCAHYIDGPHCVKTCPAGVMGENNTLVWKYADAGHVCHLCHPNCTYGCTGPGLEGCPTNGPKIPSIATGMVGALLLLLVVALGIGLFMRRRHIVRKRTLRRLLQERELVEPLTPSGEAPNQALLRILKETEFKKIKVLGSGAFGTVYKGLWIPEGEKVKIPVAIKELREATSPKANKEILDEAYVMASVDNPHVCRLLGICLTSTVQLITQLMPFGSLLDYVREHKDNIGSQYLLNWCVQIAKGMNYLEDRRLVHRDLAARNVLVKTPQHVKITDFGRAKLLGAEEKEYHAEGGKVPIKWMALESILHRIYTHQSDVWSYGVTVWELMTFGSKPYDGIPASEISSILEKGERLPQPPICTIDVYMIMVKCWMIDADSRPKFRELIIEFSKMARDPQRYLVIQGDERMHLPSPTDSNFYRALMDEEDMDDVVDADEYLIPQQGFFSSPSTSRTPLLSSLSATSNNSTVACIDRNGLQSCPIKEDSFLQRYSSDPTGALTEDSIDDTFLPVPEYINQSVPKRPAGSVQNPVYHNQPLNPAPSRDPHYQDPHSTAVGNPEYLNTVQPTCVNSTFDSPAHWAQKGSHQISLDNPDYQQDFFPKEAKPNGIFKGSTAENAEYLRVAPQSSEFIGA
In short: as §1

[5] = molecular target: EGFR wildtype (Homo sapiens, UniProt P00533); test: Biochemical EGFR kinase assay (Lance Ultra TR-FRET), wildtype
Sequence of EGFR wildtype (P00533 25-1210): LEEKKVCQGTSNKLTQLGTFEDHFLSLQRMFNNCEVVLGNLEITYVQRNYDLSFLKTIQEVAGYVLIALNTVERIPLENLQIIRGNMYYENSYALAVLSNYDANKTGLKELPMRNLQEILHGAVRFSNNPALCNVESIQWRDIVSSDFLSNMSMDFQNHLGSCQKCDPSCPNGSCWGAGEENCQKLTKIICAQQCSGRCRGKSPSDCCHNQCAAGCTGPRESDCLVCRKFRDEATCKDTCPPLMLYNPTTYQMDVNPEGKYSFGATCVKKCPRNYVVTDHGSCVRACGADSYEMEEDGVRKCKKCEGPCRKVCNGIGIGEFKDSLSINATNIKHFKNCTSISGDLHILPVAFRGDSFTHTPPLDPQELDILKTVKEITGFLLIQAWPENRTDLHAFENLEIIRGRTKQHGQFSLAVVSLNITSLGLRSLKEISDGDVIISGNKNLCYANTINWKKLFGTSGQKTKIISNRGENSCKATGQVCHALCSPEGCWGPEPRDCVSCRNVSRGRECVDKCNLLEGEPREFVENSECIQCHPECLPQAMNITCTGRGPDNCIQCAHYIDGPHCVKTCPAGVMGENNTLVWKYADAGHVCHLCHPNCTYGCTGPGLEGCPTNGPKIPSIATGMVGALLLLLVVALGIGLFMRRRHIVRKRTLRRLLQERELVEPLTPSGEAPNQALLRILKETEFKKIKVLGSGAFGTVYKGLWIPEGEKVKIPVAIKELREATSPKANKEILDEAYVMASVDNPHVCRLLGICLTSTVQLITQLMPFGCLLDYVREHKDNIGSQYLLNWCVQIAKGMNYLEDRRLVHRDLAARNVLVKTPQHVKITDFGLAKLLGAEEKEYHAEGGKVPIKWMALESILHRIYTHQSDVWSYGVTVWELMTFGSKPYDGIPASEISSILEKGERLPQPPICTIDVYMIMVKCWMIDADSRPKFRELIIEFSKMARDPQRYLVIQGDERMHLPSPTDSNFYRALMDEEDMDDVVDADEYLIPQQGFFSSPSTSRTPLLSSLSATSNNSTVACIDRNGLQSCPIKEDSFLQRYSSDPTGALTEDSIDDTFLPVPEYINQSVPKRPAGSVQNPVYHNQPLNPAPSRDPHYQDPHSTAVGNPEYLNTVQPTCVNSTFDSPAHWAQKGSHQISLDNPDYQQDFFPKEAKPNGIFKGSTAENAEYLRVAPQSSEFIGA
In short: as §1

[6] = IC50 L858R/T790M/C797S (nM) 100 μM ATP, 100 μM ATP
[7] = IC50 del19/T790M/C797S (nM) 100 μM ATP, 100 μM ATP
[8] = Km ATP, read-out: IC50 del19/T790M/C797S (nM) Km ATP
[9] = IC50 del19/C797S (nM) 100 μM ATP, 100 μM ATP
[10] = Km ATP, read-out: IC50 del19/C797S (nM) Km ATP
[11] = IC50 L858R/C797S (nM) 100 μM ATP, 100 μM ATP
[12] = Km ATP, read-out: IC50 L858R/C797S (nM) Km ATP
[13] = IC50 WT (nM) 100 μM ATP, 100 μM ATP
[14] = Km ATP, read-out: IC50 WT (nM) Km ATP
[15] = IC50 L858R/T790M/C797S, 100 μM ATP
[16] = IC50 del19/T790M/C797S, 100 μM ATP
[17] = ATP at Km, read-out: IC50 L858R/T790M/C797S, Km ATP
[18] = ATP at Km, read-out: IC50 del19/T790M/C797S, Km ATP
[19] = ATP at Km, read-out: IC50 del19/C797S, Km ATP
[20] = ATP at Km, read-out: IC50 L858R/C797S, Km ATP
[21] = ATP at Km, read-out: IC50 WT, Km ATP
[22] = Km ATP, read-out: IC50 L858R/T790M/C797S (nM) Km ATP

Sequence of EGFR L858R/T790M/C797S (P00533 25-1210 T790M/C797S/L858R): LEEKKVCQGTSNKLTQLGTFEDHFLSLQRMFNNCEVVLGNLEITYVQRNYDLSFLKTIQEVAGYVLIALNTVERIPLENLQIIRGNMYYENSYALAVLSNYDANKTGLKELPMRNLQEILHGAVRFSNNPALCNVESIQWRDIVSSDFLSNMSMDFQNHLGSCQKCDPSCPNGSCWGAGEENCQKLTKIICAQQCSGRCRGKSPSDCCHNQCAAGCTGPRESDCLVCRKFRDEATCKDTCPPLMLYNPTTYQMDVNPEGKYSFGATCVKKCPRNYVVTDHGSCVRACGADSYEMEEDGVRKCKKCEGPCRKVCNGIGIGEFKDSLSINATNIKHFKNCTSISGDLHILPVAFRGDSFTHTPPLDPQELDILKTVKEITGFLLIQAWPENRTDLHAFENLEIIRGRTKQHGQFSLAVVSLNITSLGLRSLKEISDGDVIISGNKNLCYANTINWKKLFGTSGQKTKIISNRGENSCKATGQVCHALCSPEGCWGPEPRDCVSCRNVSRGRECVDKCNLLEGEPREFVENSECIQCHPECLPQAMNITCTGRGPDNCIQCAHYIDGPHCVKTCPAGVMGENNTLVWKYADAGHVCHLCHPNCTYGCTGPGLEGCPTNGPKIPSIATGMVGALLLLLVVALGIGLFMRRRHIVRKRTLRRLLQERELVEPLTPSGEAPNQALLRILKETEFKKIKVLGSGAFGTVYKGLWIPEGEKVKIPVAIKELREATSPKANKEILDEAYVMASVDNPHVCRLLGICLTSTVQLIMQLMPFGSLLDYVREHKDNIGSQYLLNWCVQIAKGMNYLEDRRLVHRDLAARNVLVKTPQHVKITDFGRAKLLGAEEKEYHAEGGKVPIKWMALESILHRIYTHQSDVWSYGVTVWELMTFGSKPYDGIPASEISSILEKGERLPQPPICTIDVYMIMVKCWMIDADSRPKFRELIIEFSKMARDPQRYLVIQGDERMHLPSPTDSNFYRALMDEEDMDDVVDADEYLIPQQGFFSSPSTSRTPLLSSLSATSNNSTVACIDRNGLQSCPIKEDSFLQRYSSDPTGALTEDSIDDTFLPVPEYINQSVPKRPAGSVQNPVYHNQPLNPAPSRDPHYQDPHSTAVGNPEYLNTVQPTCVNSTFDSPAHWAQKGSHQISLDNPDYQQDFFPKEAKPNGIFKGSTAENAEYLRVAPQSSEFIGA

Structure (SMILES) | IC50 [1, 6] [nM] | IC50 [2, 7] [nM] | IC50 [2, 8] [nM] | IC50 [3, 9] [nM] | IC50 [3, 10] [nM] | IC50 [4, 11] [nM] | IC50 [4, 12] [nM] | IC50 [5, 13] [nM] | IC50 [5, 14] [nM] | IC50 [1, 15] [nM] | IC50 [2, 16] [nM] | IC50 ([3]; IC50 del19/C797S, 100 μM ATP) [nM] | IC50 ([4]; IC50 L858R/C797S, 100 μM ATP) [nM] | IC50 ([5]; IC50 WT, 100 μM ATP) [nM] | IC50 [1, 17] [nM] | IC50 [2, 18] [nM] | IC50 [3, 19] [nM] | IC50 [4, 20] [nM] | IC50 [5, 21] [nM] | other results
CC(C)(O)[C@H]1CC[C@@H](Nc2cc(Nc3ccnc(-c4cnn(S(=O)(=O)C5CC5)c4)n3)ncc2-c2ccc(CO)cn2)CC1 [Example 24, 2-((1s,4s)-4-((6′-((2-(1-(Cyclopropylsulfonyl)-1H-pyrazol-4-yl)pyrimidin-4-yl)amino)-5-(hydroxymethyl)-[2,3′-bipyridin]-4′-yl)amino)cyclohexyl)propan-2-ol] | 0.9 | 8.4 | 1 | 2.2 | 1 | 3.5 | 0.7 | > 10000 | 2.8 | – | – | – | – | – | – | – | – | – | – | –
C[C@]1(O)CC[C@@H](Nc2cc(Nc3ccnc(-c4cnn(S(=O)(=O)C5CC5)c4)n3)ncc2-c2cc(NCCCO)ccn2)CC1 [Example 282, (1s,4s)-4-((6′-((2-(1-(Cyclopropylsulfonyl)-1H-pyrazol-4-yl)pyrimidin-4-yl)amino)-4-((3-hydroxypropyl)amino)-[2,3′-bipyridin]-4′-yl)amino)-1-methylcyclohexan-1-ol] | – | – | – | – | – | – | – | – | – | 0.4 | 0.2 | 1.4 | 7 | 3970 | – | – | – | – | – | –
C[C@]1(O)CC[C@@H](Nc2cc(Nc3nc(-c4cnn(S(=O)(=O)C5CC5)c4)ncc3F)ncc2-c2ccc(CC(F)(F)F)cn2)CC1 [Example 299, (1s,4s)-4-((6′-((2-(1-(Cyclopropylsulfonyl)-1H-pyrazol-4-yl)-5-fluoropyrimidin-4-yl)amino)-5-(2,2,2-trifluoroethyl)-[2,3′-bipyridin]-4′-yl)amino)-1-methylcyclohexan-1-ol] | – | – | – | – | – | – | – | – | – | – | – | – | – | – | 3.2 | 5.7 | 28.6 | 8.5 | 245 | –
C[C@]1(O)CC[C@@H](Nc2cc(Nc3ccnc(-c4cnn(S(=O)(=O)C5CC5)c4)n3)ncc2-c2ccc(N3CC(F)(F)C3)nn2)CC1 [Example 66, (1s,4s)-4-((2-((2-(1-(Cyclopropylsulfonyl)-1H-pyrazol-4-yl)pyrimidin-4-yl)amino)-5-(6-(3,3-difluoroazetidin-1-yl)pyridazin-3-yl)pyridin-4-yl)amino)-1-methylcyclohexan-1-ol] | 0.5 | 0.5 | 0.3 | 0.9 | 0.4 | 12.2 | 0.5 | > 10000 | 11.5 | – | – | – | – | – | – | – | – | – | – | IC50 [1, 22]: 0.1 nM
O=S(=O)(C1CC1)n1cc(-c2nccc(Nc3cc(N[C@H]4CCC[C@H](CO)C4)c(-c4ccc(CC(F)(F)F)cn4)cn3)n2)cn1 [Example 222, ((1S,3S)-3-((6′-((2-(1-(Cyclopropylsulfonyl)-1H-pyrazol-4-yl)pyrimidin-4-yl)amino)-5-(2,2,2-trifluoroethyl)-[2,3′-bipyridin]-4′-yl)amino)cyclohexyl)methanol] | – | – | – | – | – | – | – | – | – | 2 | 3.4 | 16.8 | 296 | > 10000 | 1.7 | 3.9 | 8.9 | 11.7 | 37.4 | –
COC1CN(c2ccc(-c3cnc(Nc4ccnc(-c5cnn(S(=O)(=O)C6CC6)c5)n4)cc3N[C@H]3CC[C@@H](CO)CC3)nc2)C1 [Example 91, ((1s,4s)-4-((6′-((2-(1-(Cyclopropylsulfonyl)-1H-pyrazol-4-yl)pyrimidin-4-yl)amino)-5-(3-methoxyazetidin-1-yl)-[2,3′-bipyridin]-4′-yl)amino)cyclohexyl)methanol] | 1.1 | 1.3 | 0.5 | 2.8 | 0.9 | 9.7 | 0.8 | > 10000 | 2.5 | – | – | – | – | – | – | – | – | – | – | IC50 [1, 22]: 0.9 nM
CC(C)(O)[C@H]1CC[C@@H](Nc2cc(Nc3ccnc(-c4cnn(S(=O)(=O)C5CC5)c4)n3)ncc2-c2ccc(N3CC(F)(F)C3)cn2)CC1 [Example 225, 2-((1s,4s)-4-((6′-((2-(1-(Cyclopropylsulfonyl)-1H-pyrazol-4-yl)pyrimidin-4-yl)amino)-5-(3,3-difluoroazetidin-1-yl)-[2,3′-bipyridin]-4′-yl)amino)cyclohexyl)propan-2-ol] | – | – | – | – | – | – | – | – | – | – | – | – | – | – | 2.5 | 6.9 | 16.1 | 10.2 | 33.8 | IC50 ([1]; read-out: IC50 L858R/T790M/C797S, 100 μM ATP): 4.4 nM; IC50 ([2]; read-out: IC50 del19/T790M/C797S, 100 μM ATP): 6 nM; IC50 ([3]; read-out: IC50 del19/C797S, 100 μM ATP): 19.8 nM; IC50 ([4]; read-out: IC50 L858R/C797S, 100 μM ATP): 799 nM; IC50 ([5]; read-out: IC50 WT, 100 μM ATP): > 10000 nM
C[C@]1(O)CC[C@@H](Nc2cc(Nc3ccnc(-c4cnn(S(=O)(=O)C5CC5)c4)n3)ncc2-c2ccc(C(F)F)cn2)CC1 [Example 63, (1s,4s)-4-((6′-((2-(1-(Cyclopropylsulfonyl)-1H-pyrazol-4-yl)pyrimidin-4-yl)amino)-5-(difluoromethyl)-[2,3′-bipyridin]-4′-yl)amino)-1-methylcyclohexan-1-ol] | 0.2 | 0.2 | – | 0.8 | – | 5.4 | – | > 10000 | – | – | – | – | – | – | – | – | – | – | – | –
CN(C)S(=O)(=O)c1ccc(-c2cnc(Nc3ccnc(-c4cnn(S(=O)(=O)C5CC5)c4)n3)cc2N[C@H]2CC[C@@H](CO)CC2)nc1 [Example 166, 6′-((2-(1-(Cyclopropylsulfonyl)-1H-pyrazol-4-yl)pyrimidin-4-yl)amino)-4′-(((1s,4s)-4-(hydroxymethyl)cyclohexyl)amino)-N,N-dimethyl-[2,3′-bipyridine]-5-sulfonamide] | – | – | – | – | – | – | – | – | – | 0.6 | 5.1 | 2.4 | 2.4 | > 10000 | – | 1.9 | 1.2 | 1.1 | 2 | –
CN1CCN(c2ccc(-c3cnc(Nc4ccnc(-c5cnn(S(=O)(=O)C6CC6)c5)n4)cc3N[C@H]3CC[C@@](C)(O)CC3)nn2)CC1 [Example 46, (1s,4s)-4-((2-((2-(1-(Cyclopropylsulfonyl)-1H-pyrazol-4-yl)pyrimidin-4-yl)amino)-5-(6-(4-methylpiperazin-1-yl)pyridazin-3-yl)pyridin-4-yl)amino)-1-methylcyclohexan-1-ol] | 0.2 | 0.3 | 0.2 | 0.4 | 0.2 | 0.9 | 0.2 | > 10000 | 0.9 | – | – | – | – | – | – | – | – | – | – | IC50 [1, 22]: 0.1 nM
C[C@]1(O)CC[C@@H](Nc2cc(Nc3ccnc(-c4cnn(S(=O)(=O)C5CC5)c4)n3)ncc2-c2ccc(N3CC(F)(F)C3)cn2)CC1 [Example 224, (1s,4s)-4-((6′-((2-(1-(Cyclopropylsulfonyl)-1H-pyrazol-4-yl)pyrimidin-4-yl)amino)-5-(3,3-difluoroazetidin-1-yl)-[2,3′-bipyridin]-4′-yl)amino)-1-methylcyclohexan-1-ol] | – | – | – | – | – | – | – | – | – | 1.4 | 1.6 | 3.5 | 171 | > 10000 | 0.4 | 2 | 2.1 | – | 5.2 | –
CC(C)(O)[C@H]1CC[C@@H](Nc2cc(Nc3ccnc(-c4cnn(S(=O)(=O)C5CC5)c4)n3)ncc2-c2cc(NC3CC(F)(F)C3)ccn2)CC1 [Example 215, 2-((1s,4s)-4-((6′-((2-(1-(Cyclopropylsulfonyl)-1H-pyrazol-4-yl)pyrimidin-4-yl)amino)-4-((3,3-difluorocyclobutyl)amino)-[2,3′-bipyridin]-4′-yl)amino)cyclohexyl)propan-2-ol] | – | – | – | – | – | – | – | – | – | 17.5 | 25.4 | 36.4 | 46.4 | 6110 | 7.6 | 9.1 | 7.8 | 13.6 | 21.4 | –

Source: patent US12258328B2, “6-membered heteroaryl-containing aminopyridine compounds as EGFR inhibitors” (YUHAN CORPORATION, priority 2021, dated 2025)
